According to patent publication US20240002899A1 (priority 2022, published 2024):
Like-named read-outs stand apart in the source and are kept apart here.

System: VSV (ATCC VR-1238)
Format: cell-based, vesicular stomatitis virus

Cc1cc2nc3c(=O)[nH]c(=O)nc-3n(C[C@H](O)[C@H](O)[C@H](O)CO)c2cc1C [riboflavin]
MVEPI of VSV in plasma (intermediate-acting RUV: 311 nm, irradiation dose 6.49 J/mL): 4.04 | MVEPI of VSV in plasma (weak-acting (low-acting) RUV: 365 nm, irradiation dose 12.56 J/mL): 1.77
